Measured values published in patent US20240199702A1, “CELL-PERMEABLE CYCLIC PEPTIDES AND USES THEREOF” (Unnatural Products Inc., priority 2021, published 2024).
Where a SMILES comes first, the peptide text is derived from it. [ ]: non-standard residue; d: D form. The star is where a group is joined. Ala(4-thiazolyl) = N[C@@H](Cc1cscn1)C(=O)O; NMeAla(cPent) = CN[C@@H](CC1CCCC1)C(=O)O; Phe(4-Cl) = N[C@@H](Cc1ccc(Cl)cc1)C(=O)O; Phe(4-F) = N[C@@H](Cc1ccc(F)cc1)C(=O)O; Ala(cPent) = N[C@@H](CC1CCCC1)C(=O)O; Cyclohexanecarbonyl = O=C(C1CCCCC1)*; NMeCba = CN[C@@H](CC1CCC1)C(=O)O; NMeF = CN[C@@H](Cc1ccccc1)C(=O)O; NMeI = CC[C@H](C)[C@H](NC)C(=O)O; NMeT = CN[C@H](C(=O)O)[C@@H](C)O; Cba = N[C@@H](CC1CCC1)C(=O)O; Nicotinoyl = O=C(c1cccnc1)*; Isovaleryl = CC(C)CC(=O)*; Methoxyacetyl = COCC(=O)*; hSer = N[C@@H](CCO)C(=O)O; NMeA = CN[C@@H](C)C(=O)O; dNMeA = CN[C@H](C)C(=O)O; Bz = O=C(c1ccccc1)*; Nme = COCCNCC(=O)O; X1 = O=C(C(F)F)*; Sar = CNCC(=O)O

Experiments:
[1] = biological target: T1, Human MDM4 (HDM4) 1-114 (Homo sapiens, UniProt O15151); assay: Fluorescence Polarization Assay 2 (MDM4/p53 peptide); format: binding; conditions: FAM-labeled p53 peptide, 60 minutes
T1 construct: Human MDM4 (HDM4) 1-114
T1 sequence (O15151 1-114): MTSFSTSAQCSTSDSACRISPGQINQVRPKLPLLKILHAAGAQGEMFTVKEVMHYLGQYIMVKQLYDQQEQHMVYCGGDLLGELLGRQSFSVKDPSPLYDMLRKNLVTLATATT
Procedure: Fluorescence Polarization Assay 2
(§1) Human MDM4 (HDM4) 1-114 (20 μL) and FAM-labeled GGTSFAEYWNLLSP —NH2, 20 nM and 5 nM respectively in 10 mM Tris, 50 mM NaCl, 0.01% Tween20, and 1 mM DTT at pH 7.4 were dispensed into an opaque, black, 384 well plate. Compounds dissolved in DMSO were pin transferred (−100-200 nL) to the 384 well plate containing the MDM4/p53 solution. After incubation for 60 minutes, the fluorescence polarization was read on a Molecular Devices SpectraMax plate reader equipped with a Fluorescein FP cartridge. In addition to probe alone (positive control) and probe/MDM4 (negative control), a titration of linear p53(18-26) was included on every plate as an additional control. IC50 values were fit using either Prism or Collaborative Drug Discovery.

[2] = biological target: T2, Human MDM2 (HDM2) 1-116 (Homo sapiens, UniProt Q00987); assay: Fluorescence Polarization Assay 1 (MDM2/p53 peptide); format: binding; conditions: FAM-labeled p53 peptide, 60 minutes
T2 construct: Human MDM2 (HDM2) 1-116
Procedure: Fluorescence Polarization Assay 1
as §1, with “MDM2 (HDM2) 1-116” for “MDM4 (HDM4) 1-114”, “GGTSFAEYWNLLSP-NH2, 10” for “GGTSFAEYWNLLSP —NH2, 20”, “(˜100-200” for “(−100-200”, “MDM2/p53” for “MDM4/p53”, “probe/MDM2” for “probe/MDM4”

T2 sequence (Q00987 1-116): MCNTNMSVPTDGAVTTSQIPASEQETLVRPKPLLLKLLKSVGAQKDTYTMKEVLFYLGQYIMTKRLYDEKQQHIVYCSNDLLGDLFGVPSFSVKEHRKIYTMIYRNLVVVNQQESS

| Compound | IC50 [1] [nM] | IC50 [2] [nM] |
| --- | --- | --- |
| COCC[C@@H]1NC(=O)[C@H]2CCCN2C(=O)[C@H](Cc2ccccc2)N(C)C(=O)[C@H](Cc2ccc(Cl)cc2)NC(=O)[C@H]([C@@H](C)OC(C)=O)NC(=O)[C@H](Cc2ccc(F)cc2)NC(=O)CN(CCOC)C(=O)[C@@H](C)N(C)C(=O)[C@H](Cc2cscn2)NC(=O)[C@H](C)N(C)C1=O [compound 1] (cyclo([Ala(4-thiazolyl)][dNMeA][Nme][Phe(4-F)]T(Ac)[Phe(4-Cl)][NMeF][dP][hSer](Me)[NMeA])) | 25 to 50 | < 25 |
| COCC[C@@H]1NC(=O)[C@H]2CCCN2C(=O)[C@H](Cc2ccccc2)N(C)C(=O)[C@H](Cc2ccc(Cl)cc2)NC(=O)[C@H]([C@@H](C)OC(=O)c2ccccc2)NC(=O)[C@H](Cc2ccc(F)cc2)NC(=O)CN(CCOC)C(=O)[C@@H](C)N(C)C(=O)[C@H](Cc2cscn2)NC(=O)[C@H](C)N(C)C1=O [compound 2] (cyclo([Ala(4-thiazolyl)][dNMeA][Nme][Phe(4-F)]T(Bz)[Phe(4-Cl)][NMeF][dP][hSer](Me)[NMeA])) | < 25 | < 25 |
| COCC[C@@H]1NC(=O)[C@H]2CCCN2C(=O)[C@H](Cc2ccccc2)N(C)C(=O)[C@H](Cc2ccc(Cl)cc2)NC(=O)[C@H]([C@@H](C)OC(=O)c2cccnc2)NC(=O)[C@H](Cc2ccc(F)cc2)NC(=O)CN(CCOC)C(=O)[C@@H](C)N(C)C(=O)[C@H](Cc2cscn2)NC(=O)[C@H](C)N(C)C1=O [compound 3] (cyclo([Ala(4-thiazolyl)][dNMeA][Nme][Phe(4-F)]T(Nicotinoyl)[Phe(4-Cl)][NMeF][dP][hSer](Me)[NMeA])) | 50 to 100 | < 25 |
| COCC[C@@H]1NC(=O)[C@H]2CCCN2C(=O)[C@H](Cc2ccccc2)N(C)C(=O)[C@H](Cc2ccc(Cl)cc2)NC(=O)[C@H]([C@@H](C)OC(=O)COC)NC(=O)[C@H](Cc2ccc(F)cc2)NC(=O)CN(CCOC)C(=O)[C@@H](C)N(C)C(=O)[C@H](Cc2cscn2)NC(=O)[C@H](C)N(C)C1=O [compound 4] (cyclo([Ala(4-thiazolyl)][dNMeA][Nme][Phe(4-F)]T(Methoxyacetyl)[Phe(4-Cl)][NMeF][dP][hSer](Me)[NMeA])) | 25 to 50 | < 25 |
| COCC[C@@H]1NC(=O)[C@H]2CCCN2C(=O)[C@H](Cc2ccccc2)N(C)C(=O)[C@H](Cc2ccc(Cl)cc2)NC(=O)[C@H]([C@@H](C)OC(=O)CC(C)C)NC(=O)[C@H](Cc2ccc(F)cc2)NC(=O)CN(CCOC)C(=O)[C@@H](C)N(C)C(=O)[C@H](Cc2cscn2)NC(=O)[C@H](C)N(C)C1=O [compound 5] (cyclo([Ala(4-thiazolyl)][dNMeA][Nme][Phe(4-F)]T(Isovaleryl)[Phe(4-Cl)][NMeF][dP][hSer](Me)[NMeA])) | 50 to 100 | 25 to 50 |
| COCC[C@@H]1NC(=O)[C@H]2CCCN2C(=O)[C@H](Cc2ccccc2)N(C)C(=O)[C@H](Cc2ccc(Cl)cc2)NC(=O)[C@H]([C@@H](C)OC(=O)C(F)F)NC(=O)[C@H](Cc2ccc(F)cc2)NC(=O)CN(CCOC)C(=O)[C@@H](C)N(C)C(=O)[C@H](Cc2cscn2)NC(=O)[C@H](C)N(C)C1=O [compound 7] (cyclo([Ala(4-thiazolyl)][dNMeA][Nme][Phe(4-F)]T(X1)[Phe(4-Cl)][NMeF][dP][hSer](Me)[NMeA])) | 50 to 100 | 25 to 50 |
| COCC[C@@H]1NC(=O)[C@H]2CCCN2C(=O)[C@H](Cc2ccccc2)N(C)C(=O)[C@H](Cc2ccc(Cl)cc2)NC(=O)[C@H]([C@@H](C)OC(=O)C2CCCCC2)NC(=O)[C@H](Cc2ccc(F)cc2)NC(=O)CN(CCOC)C(=O)[C@@H](C)N(C)C(=O)[C@H](Cc2cscn2)NC(=O)[C@H](C)N(C)C1=O [compound 8] (cyclo([Ala(4-thiazolyl)][dNMeA][Nme][Phe(4-F)]T(Cyclohexanecarbonyl)[Phe(4-Cl)][NMeF][dP][hSer](Me)[NMeA])) | ≥ 100 | ≥ 100 |
| COCC[C@@H]1NC(=O)[C@H]2CCCN2C(=O)[C@H](Cc2ccccc2)N(C)C(=O)[C@H](Cc2ccc(Cl)cc2)NC(=O)[C@H](CC2CCC2)N(C)C(=O)[C@H](Cc2ccc(F)cc2)NC(=O)CN(CCOC)C(=O)[C@@H](C)N(C)C(=O)[C@H](Cc2cscn2)NC(=O)[C@H](C)N(C)C1=O [compound 9] (cyclo([Ala(4-thiazolyl)][dNMeA][Nme][Phe(4-F)][NMeCba][Phe(4-Cl)][NMeF][dP][hSer](Me)[NMeA])) | 50 to 100 | < 25 |
| COCC[C@@H]1NC(=O)[C@H]2CCCN2C(=O)[C@H](Cc2ccccc2)N(C)C(=O)[C@H](Cc2ccc(Cl)cc2)NC(=O)[C@H](CC2CCCC2)N(C)C(=O)[C@H](Cc2ccc(F)cc2)NC(=O)CN(CCOC)C(=O)[C@@H](C)N(C)C(=O)[C@H](Cc2cscn2)NC(=O)[C@H](C)N(C)C1=O [compound 10] (cyclo([Ala(4-thiazolyl)][dNMeA][Nme][Phe(4-F)][NMeAla(cPent)][Phe(4-Cl)][NMeF][dP][hSer](Me)[NMeA])) | ≥ 100 | < 25 |
| COCC[C@@H]1NC(=O)[C@H]2CCCN2C(=O)[C@H](Cc2ccccc2)N(C)C(=O)[C@H](Cc2ccc(Cl)cc2)NC(=O)[C@H]([C@@H](C)OC)NC(=O)[C@H](Cc2ccc(F)cc2)NC(=O)CN(CCOC)C(=O)[C@@H](C)N(C)C(=O)[C@H](Cc2cscn2)NC(=O)[C@H](C)N(C)C1=O [compound 12] (cyclo([Ala(4-thiazolyl)][dNMeA][Nme][Phe(4-F)]T(Me)[Phe(4-Cl)][NMeF][dP][hSer](Me)[NMeA])) | < 25 | < 25 |
| COCC[C@@H]1NC(=O)[C@H]2CCCN2C(=O)[C@H](Cc2ccccc2)N(C)C(=O)[C@H](Cc2ccc(Cl)cc2)NC(=O)[C@H](C(C)C)NC(=O)[C@H](Cc2ccc(F)cc2)NC(=O)CN(C)C(=O)[C@@H](C)N(C)C(=O)[C@H](Cc2cscn2)NC(=O)[C@H](C)N(C)C1=O [compound 13] (cyclo([Ala(4-thiazolyl)][dNMeA][Sar][Phe(4-F)]V[Phe(4-Cl)][NMeF][dP][hSer](Me)[NMeA])) | 25 to 50 | < 25 |
| COCC[C@@H]1NC(=O)[C@H]2CCCN2C(=O)[C@H](Cc2ccccc2)N(C)C(=O)[C@H](Cc2ccc(Cl)cc2)NC(=O)[C@H](CC2CCC2)NC(=O)[C@H](Cc2ccc(F)cc2)NC(=O)CN(CCOC)C(=O)[C@@H](C)N(C)C(=O)[C@H](C)N(C)C1=O [compound 14] (cyclo([Cba][Phe(4-Cl)][NMeF][dP][hSer](Me)[NMeA][dNMeA][Nme][Phe(4-F)])) | 25 to 50 | < 25 |
| COCC[C@@H]1NC(=O)[C@H]2CCCN2C(=O)[C@H](Cc2ccccc2)N(C)C(=O)[C@H](Cc2ccc(Cl)cc2)NC(=O)[C@H](CC2CCCC2)NC(=O)[C@H](Cc2ccc(F)cc2)NC(=O)CN(CCOC)C(=O)[C@@H](C)N(C)C(=O)[C@H](C)N(C)C1=O [compound 15] (cyclo([Ala(cPent)][Phe(4-Cl)][NMeF][dP][hSer](Me)[NMeA][dNMeA][Nme][Phe(4-F)])) | 50 to 100 | < 25 |
| CC[C@H](C)[C@@H]1NC(=O)[C@H](Cc2ccc(F)cc2)NC(=O)CN(CCOC)C(=O)[C@@H](C)N(C)C(=O)[C@H](Cc2cscn2)NC(=O)[C@H](C)N(C)C(=O)[C@H](CCOC)NC(=O)[C@H]2CCCN2C(=O)[C@H](Cc2ccccc2)N(C)C(=O)[C@H](Cc2ccc(Cl)cc2)NC1=O [compound 16] (cyclo([Ala(4-thiazolyl)][dNMeA][Nme][Phe(4-F)]I[Phe(4-Cl)][NMeF][dP][hSer](Me)[NMeA])) | 25 to 50 | < 25 |
| CC[C@H](C)[C@H]1C(=O)N[C@@H](Cc2ccc(Cl)cc2)C(=O)N(C)[C@@H](Cc2ccccc2)C(=O)N2CCC[C@@H]2C(=O)N[C@@H](CCOC)C(=O)N(C)[C@@H](C)C(=O)N[C@@H](Cc2cscn2)C(=O)N(C)[C@H](C)C(=O)N(CCOC)CC(=O)N[C@@H](Cc2ccc(F)cc2)C(=O)N1C [compound 17] (cyclo([Ala(4-thiazolyl)][dNMeA][Nme][Phe(4-F)][NMeI][Phe(4-Cl)][NMeF][dP][hSer](Me)[NMeA])) | ≥ 100 | < 25 |
| COCC[C@@H]1NC(=O)[C@H]2CCCN2C(=O)[C@H](Cc2ccccc2)N(C)C(=O)[C@H](Cc2ccc(Cl)cc2)NC(=O)[C@H]([C@@H](C)O)NC(=O)[C@H](Cc2ccc(F)cc2)NC(=O)CN(CCOC)C(=O)[C@@H](C)N(C)C(=O)[C@H](Cc2cscn2)NC(=O)[C@H](C)N(C)C1=O [compound 18] (cyclo([hSer](Me)[NMeA][Ala(4-thiazolyl)][dNMeA][Nme][Phe(4-F)]T[Phe(4-Cl)][NMeF][dP])) | 25 to 50 | < 25 |
| COCC[C@@H]1NC(=O)[C@H]2CCCN2C(=O)[C@H](Cc2ccccc2)N(C)C(=O)[C@H](Cc2ccc(Cl)cc2)NC(=O)[C@H]([C@@H](C)O)N(C)C(=O)[C@H](Cc2ccc(F)cc2)NC(=O)CN(CCOC)C(=O)[C@@H](C)N(C)C(=O)[C@H](Cc2cscn2)NC(=O)[C@H](C)N(C)C1=O [compound 19] (cyclo([Ala(4-thiazolyl)][dNMeA][Nme][Phe(4-F)][NMeT][Phe(4-Cl)][NMeF][dP][hSer](Me)[NMeA])) | 50 to 100 | < 25 |
